Test results: patent publication US20240158348A1, “HERBICIDAL CYCLIC AMIDES N-SUBSTITUTED WITH A HALOALKYLSULFONYLANILIDE GROUP” (FMC Corporation, priority 2021, published 2024)

What was measured:
Type in all cases: in vivo
[1] = tested on: goosegrass (Eleusine indica); assay: Test C preemergence, goosegrass; conditions: 0 is no effect, 100 is complete control
How it was run: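 Visual injury rating, 0 (no effect) to 100 (complete control), versus untreated controls after 10 or 12 days in the greenhouse. Compounds were formulated in non-phytotoxic solvent plus surfactant and applied either as a directed soil spray at sowing or onto emerged one- to two-leaf plants.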

[2] = tested on: wheat (Triticum aestivum); assay: Test C preemergence, wheat; conditions: 0 is no effect, 100 is complete control
[3] = tested on: oat, wild (wild oat, Avena fatua); assay: Test C postemergence, wild oat; conditions: for Oat, Wild plant response rating: visual injury, 0 to 100 scale (0 no effect, 100 complete control); for Plant response rating (0 to 100 scale), Oat, Wild: 0 is no effect, 100 is complete control
[4] = tested on: goosegrass (Eleusine indica); assay: Test C postemergence, goosegrass; conditions: for Goosegrass plant response rating: visual injury, 0 to 100 scale (0 no effect, 100 complete control); for Plant response rating (0 to 100 scale), Goosegrass: 0 is no effect, 100 is complete control
How it was run: (§1)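 Herbicidal effect was estimated visually on a 0–100 scale 10 or 12 days after spraying. Formulation: non-phytotoxic solvent mixture with surfactant. Timing: directed soil spray after sowing, or postemergence on seedlings bearing one or two leaves.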

[5] = tested on: pigweed, palmer (palmer amaranth, Amaranthus palmeri); assay: Test C preemergence, palmer amaranth; conditions: 0 is no effect, 100 is complete control
How it was run: as §1

[6] = tested on: foxtail, giant (giant foxtail, Setaria faberi); assay: Test C postemergence, giant foxtail; conditions: for Foxtail, Giant plant response rating: visual injury, 0 to 100 scale (0 no effect, 100 complete control); for Plant response rating (0 to 100 scale), Foxtail, Giant: 0 is no effect, 100 is complete control
kochia (Bassia scoparia) = assay: Test C preemergence, kochia; conditions: 0 is no effect, 100 is complete control
How it was run: as §1

[7] = tested on: ragweed (common ragweed, Ambrosia artemisiifolia); assay: Test C postemergence, ragweed; conditions: for Ragweed plant response rating: visual injury, 0 to 100 scale (0 no effect, 100 complete control); for Plant response rating (0 to 100 scale), Ragweed: 0 is no effect, 100 is complete control
How it was run: as §1

SMILES | Plant response rating (0 to 100 scale), Goosegrass ([1]; 31 g ai/ha Preemergence) | Plant response rating (0 to 100 scale), Goosegrass ([1]; 125 g ai/ha Preemergence) | Plant response rating (0 to 100 scale), Wheat ([2]; 31 g ai/ha Preemergence) | Plant response rating (0 to 100 scale), Wheat ([2]; 125 g ai/ha Preemergence) | Oat, Wild plant response rating ([3]; 31 g ai/ha Postemergence) | Plant response rating (0 to 100 scale), Oat, Wild ([3]; 125 g ai/ha Postemergence) | Goosegrass plant response rating ([4]; 31 g ai/ha Postemergence) | Plant response rating (0 to 100 scale), Goosegrass ([4]; 125 g ai/ha Postemergence) | Plant response rating (0 to 100 scale), Pigweed, Palmer ([5]; 31 g ai/ha Preemergence) | Plant response rating (0 to 100 scale), Pigweed, Palmer ([5]; 125 g ai/ha Preemergence) | Foxtail, Giant plant response rating ([6]; 31 g ai/ha Postemergence) | Plant response rating (0 to 100 scale), Foxtail, Giant ([6]; 125 g ai/ha Postemergence) | Plant response rating (0 to 100 scale), Kochia (kochia (Bassia scoparia); 31 g ai/ha Preemergence) | Plant response rating (0 to 100 scale), Kochia (kochia (Bassia scoparia); 125 g ai/ha Preemergence) | Ragweed plant response rating ([7]; 31 g ai/ha Postemergence) | Ragweed plant response rating ([7]; 125 g ai/ha Postemergence) | Plant response rating (0 to 100 scale), Ragweed ([7]; 125 g ai/ha Postemergence) | Oat, Wild plant response rating ([3]; 125 g ai/ha Postemergence) | Goosegrass plant response rating ([4]; 125 g ai/ha Postemergence) | Foxtail, Giant plant response rating ([6]; 125 g ai/ha Postemergence)
Cc1c(NS(=O)(=O)C(F)(F)F)cc(N2CCCC(OC3CCC3)C2=O)c(C)c1F (centres unmarked) [Compound 36] | 90 | 100 | 40 | 100 | 30 | 30 | 30 | 90 | 90 | 100 | 10 | 30 | 20 | 90 | 40 | 90 | – | – | – | –
CCOC(=O)N(c1cc(N2CCC(OC3CC3)C2=O)c(C)cc1C)S(=O)(=O)C(F)(F)F (centres unmarked) [Compound 19] | 0 | 70 | 0 | 10 | 0 | 30 | 0 | 90 | 20 | 60 | 0 | 20 | 0 | 70 | 60 | – | 90 | – | – | –
Cc1cc(C)c(N2CCC(OCC3CC3(F)F)C2=O)cc1NS(=O)(=O)C(F)(F)F (centres unmarked) [Compound 41] | 90 | 100 | 90 | 100 | 30 | – | 90 | – | 100 | 100 | 20 | – | 100 | 100 | 50 | 70 | – | 30 | 90 | 90
CC#CCOC1CCN(c2cc(NS(=O)(=O)C(F)(F)F)c(C)cc2C)C1=O (centres unmarked) [Compound 60] | 90 | 100 | 40 | 100 | 30 | – | 80 | – | 100 | 100 | 80 | – | 90 | 100 | 80 | 90 | – | 90 | 90 | 90
Cc1c(N2CCC(OC3CCC3)C2=O)cc(N(C(=O)OCC(C)C)S(=O)(=O)C(F)(F)F)c(C)c1C (centres unmarked) [Compound 48] | 80 | 100 | 30 | 80 | 10 | – | 0 | – | 100 | 100 | 20 | – | 10 | 90 | 30 | 80 | – | 20 | 40 | 60
CCO/N=C1\CCN(c2cc(NS(=O)(=O)C(F)(F)F)c(C)cc2C)C1=O [Compound 12, N-[5-[3-(ethoxyimino)-2-oxo-1-pyrrolidinyl]-2,4-dimethylphenyl]-1,1,1-trifluoromethanesulfonamide] | 90 | 100 | 90 | 100 | 90 | 90 | 100 | 100 | 100 | 100 | 90 | 90 | 100 | 100 | 90 | – | 90 | – | – | –
CCCC(=O)OCN(c1cc(N2CCC(OC3CC3)C2=O)c(C)cc1C)S(=O)(=O)C(F)(F)F (centres unmarked) [Compound 20] | 100 | 100 | 70 | 100 | 30 | 80 | 90 | 90 | 90 | 100 | 80 | 90 | 80 | 100 | 80 | – | 90 | – | – | –
CC(=O)N(c1cc(N2CCC(OC3CC3)C2=O)c(C)cc1C)S(=O)(=O)C(F)(F)F (centres unmarked) [Compound 17] | 100 | 100 | 30 | 100 | 30 | 70 | 90 | 90 | 80 | 100 | 90 | 90 | 80 | 100 | 70 | – | 90 | – | – | –
Cc1c(N2CCC(OC3CC3)C2=O)cc(N(C(=O)OCC(C)C)S(=O)(=O)C(F)(F)F)c(C)c1C (centres unmarked) [Compound 50] | 90 | 100 | 30 | 100 | 20 | – | 20 | – | 90 | 100 | 50 | – | 20 | 100 | 70 | 80 | – | 50 | 80 | 80
Cc1c(NS(=O)(=O)C(F)(F)F)cc(N2CCC(OC3CC3)C2=O)c(C)c1F (centres unmarked) [Compound 26] | 90 | 100 | 60 | 100 | 20 | 50 | 80 | 100 | 100 | 100 | 40 | 90 | 100 | 100 | 60 | 80 | – | – | – | –
Cc1cc(C)c(N(COC(=O)C(C)(C)C)S(=O)(=O)C(F)(F)F)cc1N1CCC(OCC2CC2)C1=O (centres unmarked) [Compound 53] | 60 | 100 | 60 | 90 | 10 | – | 60 | – | 30 | 90 | 30 | – | 0 | 50 | 70 | 90 | – | 50 | 90 | 90
